Experimental data taken from US20220273813A1, “PHOTOSENSITIZER-CONJUGATED ANTIMICROBIAL CELLULOSE NANOCRYSTALS AND METHODS OF SYNTHESIZING AND USING SAME” (HNU MATERIALS INC., priority 2019, published 2022).

Experiments:
E. coli (ATCC25922) = assay: Photobactericidal activity, CFU count, E. coli; conditions: 20 min ambient light (LED); concentration matched to absorption of 8 mg/L CNC-AA
Protocol: In the experimental set-up, the viability of bacteria as a response to intensity of white light exposure and concentration of disinfectant was monitored. This was carried out by calculating the number of bacterial colonies present in solution before and after exposure.
According to the experimental protocol, a suspension of cells (2.6×10^8 cells/ml ±0.5 log) was treated with either AA, CNC or CNC+AA or CNC-AA or PBS (untreated control) at different concentration (FIGS. 7-9). For each set of conditions, the initial culture was equally divided into two. One part was light treated while the other was kept in the dark. After different time periods (FIGS. 7-9), bactericidal activity was quantified by counting colony forming units (CFU) on agar plates. […] Comparison of the number of CFUs in the treated samples (AA, CNC, CNC+AA and CNC-AA) to untreated (PBS) placed under light, enabled the inventors to quantify the specific photo-bactericidal activity of the test agents. Killing effect was calculated using the following expression (equation 2).
Killing=Log 10(#CFUUntreated)−Log 10(CFUtreated) (2)

P. aeruginosa biofilms = tested on: P. aeruginosa biofilms; set-up: dose or concentration left out as unconfirmed; conditions: combined with laser irradiation at specific wavelengths; cited from earlier work

## CN(C)c1ccc2nc3ccc(N)cc3[s+]c2c1.[Cl-] [AA, azure A]
E. coli (ATCC25922)
  toxicity against E. coli: significantly reduced compared to CNC-AA

## CN(C)c1ccc2nc3ccc(=[N+](C)C)cc-3sc2c1 [methylene blue]
P. aeruginosa biofilms
  concentration necessary to eradicate P. aeruginosa biofilms: 0.01 % wt/wt
